Values quoted from earlier work as cited in patent US10548837B1, “Topical montelukast for treatment of atopic dermatitis” (TARO PHARMACEUTICAL INDUSTRIES LTD., priority 2016, dated 2020).

Target: T1, cysLT1 receptor (Homo sapiens, UniProt Q9Y271)
T1 sequence (Q9Y271 1-337): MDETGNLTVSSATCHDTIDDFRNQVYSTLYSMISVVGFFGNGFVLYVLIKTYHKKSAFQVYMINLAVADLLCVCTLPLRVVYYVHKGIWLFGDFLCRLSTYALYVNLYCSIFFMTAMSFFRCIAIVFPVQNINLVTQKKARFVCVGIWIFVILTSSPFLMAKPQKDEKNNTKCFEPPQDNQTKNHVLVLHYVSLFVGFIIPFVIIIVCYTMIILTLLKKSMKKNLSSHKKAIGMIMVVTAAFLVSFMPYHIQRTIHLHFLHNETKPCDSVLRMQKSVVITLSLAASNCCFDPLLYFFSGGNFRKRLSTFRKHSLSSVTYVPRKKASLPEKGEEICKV
Settings: background statement

COc1cc(C(=O)NS(=O)(=O)c2ccccc2C)ccc1Cc1cn(C)c2ccc(NC(=O)OC3CCCC3)cc12 [zafirlukast]
binding to the cysLT1 receptor: high-affinity binding
